Experimental findings from ChEMBL document CHEMBL4354828, “Discovery of Taniborbactam (VNRX-5133): A Broad-Spectrum Serine- and Metallo-β-lactamase Inhibitor for Carbapenem-Resistant Bacterial Infections” (J Med Chem, 2020) are described below.

≈ marks a conversion by molar mass, not a printed value. Some results are limits rather than exact numbers.

Common to all, as to format: functional
Assay [1] relates to Staphylococcus aureus. In words: Antibacterial activity against wild type Staphylococcus aureus ATCC 29213 after 16 to 20 hrs by CLSI-based microbroth dilution method.
Assay [2] has as its system Pseudomonas aeruginosa. Description: Antibacterial activity against Pseudomonas aeruginosa Ps296 AmpC/VIM-2/TEM-1 after 16 to 20 hrs by CLSI-based microbroth dilution method. (Dilution methods test growth across graded concentrations, often in twofold steps.)
The subject of assay [3] is Pseudomonas aeruginosa. Description: Antibacterial activity against wild type Pseudomonas aeruginosa 27853 after 16 to 20 hrs by CLSI-based microbroth dilution method.
In assay [4] the test system is Escherichia coli. Description: Antibacterial activity against Escherichia coli J53 expressing SHV5/ AmpC/TEM-1 after 16 to 20 hrs by CLSI-based microbroth dilution method.
A further assay has as its system Klebsiella aerogenes. In words: Antibacterial activity against Enterobacter aerogenes 188548 expressing AmpC after 16 to 20 hrs by CLSI-based microbroth dilution method.
A further assay has as its system Enterobacter cloacae. In words: Antibacterial activity against Enterobacter cloacae 144200 expressing p99 AmpC after 16 to 20 hrs by CLSI-based microbroth dilution method.
Assay [5] concerns Klebsiella pneumoniae. Description: Antibacterial activity against wild type Klebsiella pneumoniae CI 09 after 16 to 20 hrs by CLSI-based microbroth dilution method.
Assay [6] has as its system Staphylococcus aureus. Description: Antibacterial activity against methicillin resistant Staphylococcus aureus 33591 after 16 to 20 hrs by CLSI-based microbroth dilution method.
The test system of assay [7] is Escherichia coli. Description: Antibacterial activity against wild type Escherichia coli ATCC 25922 after 16 to 20 hrs by CLSI-based microbroth dilution method.
In assay [8] the test system is Klebsiella pneumoniae. In words: Antibacterial activity against Klebsiella pneumoniae 11978 expressing OXA-48 after 16 to 20 hrs by CLSI-based microbroth dilution method.
Assay [9] concerns Klebsiella pneumoniae. Description: Antibacterial activity against Klebsiella pneumoniae UMM expressing SHV5/KPC-2/TEM-1 after 16 to 20 hrs by CLSI-based microbroth dilution method.
For assay [10], the system named is Klebsiella pneumoniae. Description: Antibacterial activity against Klebsiella pneumoniae A-1797 expressing KPC-2/VIM-4/CMY-4 after 16 to 20 hrs by CLSI-based microbroth dilution method.

On to `Cc1onc(-c2ccccc2)c1C(=O)N[C@@H]1C(=O)N2[C@@H]1SC(C)(C)[C@@H]2C(=O)O` [OXACILLIN], for which the MIC (in general, the least concentration at which growth counts as inhibited) was 0.125 µg/mL (≈ 0.311 µM) with Staphylococcus aureus [1]; above 128 µg/mL with Pseudomonas aeruginosa [2]; above 128 µg/mL with Pseudomonas aeruginosa [3]; above 128 µg/mL with Escherichia coli [4]; above 128 µg/mL in the assay with Klebsiella aerogenes; above 128 µg/mL in the assay with Enterobacter cloacae. Also, the MIC against Klebsiella pneumoniae [5], against Staphylococcus aureus [6], in the assay on Escherichia coli [7], against Klebsiella pneumoniae [8], against Klebsiella pneumoniae [9] and in the assay on Klebsiella pneumoniae [10] was above 128 µg/mL in each case.
